Measurements reported in PubChem BioAssay AID2060909 (Molecular Pharmacology Branch, DTP, NCI, 2025).
Values belong to the compound of their own block, whether it stands above or below them.

System: 362531-283-R-J2-PDC complex spheroid viability
Test: Anticancer human tumor 362531-283-R-J2-PDC patient-derived colon adenocarcinoma cell line growth inhibition [RAS]
Settings: for IC50: curve of first compound; for viability, T/C: stronger effect = lower value
Method in brief: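 Agents were tested in combination matrices in half-log decrements from a top concentration at or near clinical Cmax (10 microM if undetermined). Targets were multi-cell spheroids of tumour lines plus HUVEC and MSC stromal cells.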

[1] = second compound 0.0316 µM, first compound 0.0316 µM
[2] = second compound 0.0316 µM, first compound 0.1 µM
[3] = second compound 0.0316 µM, first compound 0.316 µM
[4] = second compound 0.0316 µM, first compound 1 µM
[5] = second compound 0.0316 µM, first compound 3.16 µM
[6] = second compound 0.0316 µM, first compound 10 µM
[7] = second compound 0.1 µM, first compound 0.0316 µM
[8] = second compound 0.1 µM, first compound 0.1 µM
[9] = second compound 0.1 µM, first compound 0.316 µM
[10] = second compound 0.1 µM, first compound 1 µM
[11] = second compound 0.1 µM, first compound 3.16 µM
[12] = second compound 0.1 µM, first compound 10 µM
[13] = second compound 0.316 µM, first compound 0.0316 µM
[14] = second compound 0.316 µM, first compound 0.1 µM
[15] = second compound 0.316 µM, first compound 0.316 µM
[16] = second compound 0.316 µM, first compound 1 µM
[17] = second compound 0.316 µM, first compound 3.16 µM
[18] = second compound 0.316 µM, first compound 10 µM
[19] = second compound 1 µM, first compound 0.0316 µM
[20] = second compound 1 µM, first compound 0.1 µM
[21] = second compound 1 µM, first compound 0.316 µM
[22] = second compound 1 µM, first compound 1 µM
[23] = second compound 1 µM, first compound 3.16 µM
[24] = second compound 1 µM, first compound 10 µM
[25] = second compound 0.00316 µM, first compound 0.0316 µM
[26] = second compound 0.00316 µM, first compound 0.1 µM
[27] = second compound 0.00316 µM, first compound 0.316 µM
[28] = second compound 0.00316 µM, first compound 1 µM
[29] = second compound 0.00316 µM, first compound 3.16 µM
[30] = second compound 0.00316 µM, first compound 10 µM
[31] = second compound 0.01 µM, first compound 0.0316 µM
[32] = second compound 0.01 µM, first compound 0.1 µM
[33] = second compound 0.01 µM, first compound 0.316 µM
[34] = second compound 0.01 µM, first compound 1 µM
[35] = second compound 0.01 µM, first compound 3.16 µM
[36] = second compound 0.01 µM, first compound 10 µM
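Further: spheroids exposed to the agents for 7 days before readout.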
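Wherever viability, T/C is given: luminescence viability as percent of DMSO vehicle control wells.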

IC50 (second compound 0.000949 µM): > 10 µM
IC50 (second compound 0.003 µM): > 10 µM
IC50 (second compound 0.00949 µM): > 10 µM
IC50 (second compound 0.03 µM): > 10 µM
IC50 (second compound 0.0949 µM): > 10 µM
IC50 (second compound 0.3 µM): > 10 µM
SMILES: Cc1nc(N2CCC3(CC2)COC(C)C3N)c(CO)nc1Sc1ccnc(N)c1Cl (stereo not drawn) + CCn1c(-c2cccnc2C(C)OC)c2c3cc(ccc31)N1CCOC(CC(NC(=O)C(C(C)C)N(C)C(=O)C3(F)CCN(C(=O)C#CC(C)(C)N(C)C)CC3)C(=O)N3CCCC(N3)C(=O)OCC(C)(C)C2)C1
viability, T/C (second compound 0.000949 µM, first compound 0.0316 µM): 103%
viability, T/C (second compound 0.000949 µM, first compound 0.1 µM): 103%
viability, T/C (second compound 0.000949 µM, first compound 0.316 µM): 93%
viability, T/C (second compound 0.000949 µM, first compound 1 µM): 102%
viability, T/C (second compound 0.000949 µM, first compound 3.16 µM): 80.6%
viability, T/C (second compound 0.000949 µM, first compound 10 µM): 72%
viability, T/C (second compound 0.003 µM, first compound 0.0316 µM): 111%
viability, T/C (second compound 0.003 µM, first compound 0.1 µM): 103%
viability, T/C (second compound 0.003 µM, first compound 0.316 µM): 103%
viability, T/C (second compound 0.003 µM, first compound 1 µM): 86.7%
viability, T/C (second compound 0.003 µM, first compound 3.16 µM): 87.3%
viability, T/C (second compound 0.003 µM, first compound 10 µM): 71.1%
viability, T/C (second compound 0.00949 µM, first compound 0.0316 µM): 102%
viability, T/C (second compound 0.00949 µM, first compound 0.1 µM): 111%
viability, T/C (second compound 0.00949 µM, first compound 0.316 µM): 92.1%
viability, T/C (second compound 0.00949 µM, first compound 1 µM): 93.3%
viability, T/C (second compound 0.00949 µM, first compound 3.16 µM): 82.4%
viability, T/C (second compound 0.00949 µM, first compound 10 µM): 77.7%
viability, T/C (second compound 0.03 µM, first compound 0.0316 µM): 102%
viability, T/C (second compound 0.03 µM, first compound 0.1 µM): 108%
viability, T/C (second compound 0.03 µM, first compound 0.316 µM): 95.5%
viability, T/C (second compound 0.03 µM, first compound 1 µM): 89.9%
viability, T/C (second compound 0.03 µM, first compound 3.16 µM): 82.5%
viability, T/C (second compound 0.03 µM, first compound 10 µM): 66.4%
viability, T/C (second compound 0.0949 µM, first compound 0.0316 µM): 105%
viability, T/C (second compound 0.0949 µM, first compound 0.1 µM): 94.9%
viability, T/C (second compound 0.0949 µM, first compound 0.316 µM): 96.7%
viability, T/C (second compound 0.0949 µM, first compound 1 µM): 77.5%
viability, T/C (second compound 0.0949 µM, first compound 3.16 µM): 85.6%
viability, T/C (second compound 0.0949 µM, first compound 10 µM): 74.7%
viability, T/C (second compound 0.3 µM, first compound 0.0316 µM): 94.8%
viability, T/C (second compound 0.3 µM, first compound 0.1 µM): 117%
viability, T/C (second compound 0.3 µM, first compound 0.316 µM): 94.2%
viability, T/C (second compound 0.3 µM, first compound 1 µM): 87.4%
viability, T/C (second compound 0.3 µM, first compound 3.16 µM): 76.7%
viability, T/C (second compound 0.3 µM, first compound 10 µM): 64.9%

IC50 (second compound 0.0316 µM): 1.29 µM
IC50 (second compound 0.1 µM): 0.963 µM
IC50 (second compound 0.316 µM): 0.847 µM
IC50 (second compound 1 µM): 0.421 µM
IC50 (second compound 3.16 µM): 0.119 µM
IC50 (second compound 10 µM): 0.0429 µM
SMILES: CC(Nc1ccc2c(c1)OCCn1cc(N3C(=O)OCC3C(F)F)nc1-2)C(N)=O (stereo not drawn) + C#Cc1c(F)ccc2cc(O)cc(-c3ncc4c(N5CC6CCC(C5)N6)nc(OCC56CCCN5CC(F)C6)nc4c3F)c12
viability, T/C [1]: 90.7%
viability, T/C [2]: 88.4%
viability, T/C [3]: 79%
viability, T/C [4]: 55%
viability, T/C [5]: 33.7%
viability, T/C [6]: 31%
viability, T/C [7]: 95%
viability, T/C [8]: 77%
viability, T/C [9]: 69.9%
viability, T/C [10]: 48.6%
viability, T/C [11]: 34.5%
viability, T/C [12]: 28.8%
viability, T/C [13]: 103%
viability, T/C [14]: 81.5%
viability, T/C [15]: 63.7%
viability, T/C [16]: 50.9%
viability, T/C [17]: 29.7%
viability, T/C [18]: 13.8%
viability, T/C [19]: 80.5%
viability, T/C [20]: 59.4%
viability, T/C [21]: 62.9%
viability, T/C [22]: 34.2%
viability, T/C [23]: 25.6%
viability, T/C [24]: 18%
viability, T/C (second compound 3.16 µM, first compound 0.0316 µM): 62%
viability, T/C (second compound 3.16 µM, first compound 0.1 µM): 51.9%
viability, T/C (second compound 3.16 µM, first compound 0.316 µM): 31.4%
viability, T/C (second compound 3.16 µM, first compound 1 µM): 7.66%
viability, T/C (second compound 3.16 µM, first compound 3.16 µM): 7.58%
viability, T/C (second compound 3.16 µM, first compound 10 µM): 4.5%
viability, T/C (second compound 10 µM, first compound 0.0316 µM): 56.1%
viability, T/C (second compound 10 µM, first compound 0.1 µM): 33%
viability, T/C (second compound 10 µM, first compound 0.316 µM): 6.59%
viability, T/C (second compound 10 µM, first compound 1 µM): 4.96%
viability, T/C (second compound 10 µM, first compound 3.16 µM): 3.74%
viability, T/C (second compound 10 µM, first compound 10 µM): 2.42%

IC50 (second compound 0.00316 µM): 0.206 µM
IC50 (second compound 0.01 µM): 0.207 µM
IC50 (second compound 0.0316 µM): 0.212 µM
IC50 (second compound 0.1 µM): 0.211 µM
IC50 (second compound 0.316 µM): 0.194 µM
IC50 (second compound 1 µM): 0.219 µM
SMILES: CC(=O)OC12COC1CC(O)C1(C)C(=O)C(O)C3=C(C)C(OC(=O)C(O)C(NC(=O)OC(C)(C)C)c4ccccc4)CC(O)(C(OC(=O)c4ccccc4)C21)C3(C)C (stereo not drawn) + C=CC(=O)N1CCN(c2nc(OCC3CCCN3C)nc3c(F)c(-c4nc(N)cc(C)c4C(F)(F)F)c(Cl)cc23)C(C)C1
viability, T/C [25]: 96.7%
viability, T/C [26]: 87.7%
viability, T/C [27]: 24.6%
viability, T/C [28]: 20.6%
viability, T/C [29]: 25.6%
viability, T/C [30]: 39.1%
viability, T/C [31]: 106%
viability, T/C [32]: 87.8%
viability, T/C [33]: 24.2%
viability, T/C [34]: 22.8%
viability, T/C [35]: 25.5%
viability, T/C [36]: 39.8%
viability, T/C [1]: 99.4%
viability, T/C [2]: 94.3%
viability, T/C [3]: 21.5%
viability, T/C [4]: 22.2%
viability, T/C [5]: 25.2%
viability, T/C [6]: 37.3%
viability, T/C [7]: 97.4%
viability, T/C [8]: 89.1%
viability, T/C [9]: 27%
viability, T/C [10]: 20.1%
viability, T/C [11]: 27.3%
viability, T/C [12]: 40.2%
viability, T/C [13]: 107%
viability, T/C [14]: 76.4%
viability, T/C [15]: 25.3%
viability, T/C [16]: 18%
viability, T/C [17]: 34.6%
viability, T/C [18]: 44.1%
viability, T/C [19]: 106%
viability, T/C [20]: 86.4%
viability, T/C [21]: 27.3%
viability, T/C [22]: 23.4%
viability, T/C [23]: 35.1%
viability, T/C [24]: 45.5%

IC50 (second compound 0.00316 µM): 4.14 µM
IC50 (second compound 0.01 µM): 4.69 µM
IC50 (second compound 0.0316 µM): 5.54 µM
IC50 (second compound 0.1 µM): 4.92 µM
IC50 (second compound 0.316 µM): 4.66 µM
IC50 (second compound 1 µM): 4.54 µM
SMILES: CCC(CC)c1cc(NC2CCC(N)C2)n2nccc2n1 (stereo not drawn) + C=CC(=O)N1CCN(c2nc(OCC3CCCN3C)nc3c(F)c(-c4nc(N)cc(C)c4C(F)(F)F)c(Cl)cc23)C(C)C1
viability, T/C [25]: 99.6%
viability, T/C [26]: 100%
viability, T/C [27]: 104%
viability, T/C [28]: 95.2%
viability, T/C [29]: 64.2%
viability, T/C [30]: 3.95%
viability, T/C [31]: 102%
viability, T/C [32]: 108%
viability, T/C [33]: 106%
viability, T/C [34]: 102%
viability, T/C [35]: 73.5%
viability, T/C [36]: 5.05%
viability, T/C [1]: 100%
viability, T/C [2]: 115%
viability, T/C [3]: 100%
viability, T/C [4]: 103%
viability, T/C [5]: 92.5%
viability, T/C [6]: 5.29%
viability, T/C [7]: 102%
viability, T/C [8]: 113%
viability, T/C [9]: 102%
viability, T/C [10]: 107%
viability, T/C [11]: 79.1%
viability, T/C [12]: 3.6%
viability, T/C [13]: 97%
viability, T/C [14]: 97.2%
viability, T/C [15]: 104%
viability, T/C [16]: 109%
viability, T/C [17]: 73.3%
viability, T/C [18]: 4.47%
viability, T/C [19]: 107%
viability, T/C [20]: 105%
viability, T/C [21]: 95.8%
viability, T/C [22]: 102%
viability, T/C [23]: 70.5%
viability, T/C [24]: 5.01%
